Laboratory results taken from patent US20140135319A1, “6-SUBSTITUTED IMIDAZOPYRAZINES FOR USE AS MPS-1 AND TKK INHIBITORS IN THE TREATMENT OF HYPERPROLIFERATIVE DISORDERS” (BAYER INTELLECTUAL PROPERTY GMBH, priority 2010, published 2014).

Molecular target: T1, human kinase Mps-1 (Homo sapiens, UniProt P33981)
T1 construct: N-terminally GST-tagged human full length recombinant Mps-1 kinase; GST (N); purchased Invitrogen, Karslruhe, Germany PV4071
T1 sequence (P33981 1-857): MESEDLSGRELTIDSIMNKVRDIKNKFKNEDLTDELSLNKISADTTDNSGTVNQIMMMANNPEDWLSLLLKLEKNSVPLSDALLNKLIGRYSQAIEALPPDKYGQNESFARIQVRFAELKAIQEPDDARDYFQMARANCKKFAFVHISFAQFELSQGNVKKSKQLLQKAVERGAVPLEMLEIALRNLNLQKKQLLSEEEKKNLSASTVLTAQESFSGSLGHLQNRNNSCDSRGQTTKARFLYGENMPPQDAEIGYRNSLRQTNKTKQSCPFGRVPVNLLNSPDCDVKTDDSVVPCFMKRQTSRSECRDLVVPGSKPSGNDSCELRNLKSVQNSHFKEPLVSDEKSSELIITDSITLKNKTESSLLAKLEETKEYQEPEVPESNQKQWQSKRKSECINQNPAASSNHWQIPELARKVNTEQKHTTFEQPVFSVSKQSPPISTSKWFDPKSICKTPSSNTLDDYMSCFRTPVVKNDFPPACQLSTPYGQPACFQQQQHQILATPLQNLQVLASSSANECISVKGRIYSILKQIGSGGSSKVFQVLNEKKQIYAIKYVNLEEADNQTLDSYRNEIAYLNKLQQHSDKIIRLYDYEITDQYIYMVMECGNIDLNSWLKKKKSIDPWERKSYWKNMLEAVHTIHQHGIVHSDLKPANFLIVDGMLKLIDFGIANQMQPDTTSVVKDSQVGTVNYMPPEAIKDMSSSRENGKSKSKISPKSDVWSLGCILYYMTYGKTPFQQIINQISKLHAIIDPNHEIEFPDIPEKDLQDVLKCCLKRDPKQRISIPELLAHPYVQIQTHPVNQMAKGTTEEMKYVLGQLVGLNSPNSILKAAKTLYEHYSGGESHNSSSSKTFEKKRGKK
Assay: Mps-1 kinase assay (TR-FRET)
Format: biochemical
Details: GST-tagged human full length recombinant Mps-1; 10 μM ATP; 1 μM peptide substrate; 60 min at 22° C.
Procedure: The human kinase Mps-1 phosphorylates a biotinylated substrate peptide. Detection of the phosphorylated product is achieved by time-resolved fluorescence resonance energy transfer (TR-FRET) from Europium-labelled anti-phospho-Serine/Threonine antibody as donor to streptavidin labelled with cross-linked allophycocyanin (SA-XLent) as acceptor. Compounds are tested for their inhibition of the kinase activity.
N-terminally GST-tagged human full length recombinant Mps-1 kinase (purchased from Invitrogen, Karslruhe, Germany, cat. no PV4071) was used. As substrate for the kinase reaction a biotinylated peptide of the amino-acid sequence […] (C-terminus in amide form, purchased from Biosynthan GmbH, Berlin) was used.
The concentration of Mps-1 in the assay was adjusted to the activity of the enzyme lot and was chosen appropriate to have the assay in the linear range, typical enzyme concentrations were in the range of about 1 nM (final conc. in the 5 μl assay volume).
The resulting mixture was incubated 1 h at 22° C. to allow the binding of the phosphorylated peptide to the anti-phospho(Ser/Thr)-Europium-antibody. Subsequently the amount of phosphorylated substrate was evaluated by measurement of the resonance energy transfer from the Europium-labelled anti-phospho(Ser/Thr) antibody to the Streptavidin-XLent. Therefore, the fluorescence emissions at 620 nm and 665 nm after excitation at 350 nm was measured in a Viewlux TR-FRET reader (PerkinElmer LAS, Rodgau-Jügesheim, Germany). The “blank-corrected normalized ratio” (a Viewlux specific readout, similar to the traditional ratio of the emissions at 665 nm and at 622 nm, in which blank and Eu-donor crosstalk are subtracted from the 665 nm signal before the ratio is calculated) was taken as the measure for the amount of phosphorylated substrate.

| Structure (SMILES) | IC50 [nM] |
| --- | --- |
| CC(C)(O)CNc1nc(-c2ccncc2)cn2c(-c3ccc(C(=O)NC4CC4)c(F)c3)cnc12 [Example 1-57, N-cyclopropyl-2-fluoro-4-{8-[(2-hydroxy-2-methylpropyl)amino]-6-(pyridin-4-yl)imidazo [1,2-a]pyrazin-3-yl} benzamide] | 24.1 |
| CC(C)CNc1nc(-c2cc3ccccc3o2)cn2c(-c3ccc(C(=O)NC4CC4)cc3)cnc12 [Example 1-11, 4-{6-(1-benzofuran-2-yl)-8-[(2-methylpropyl)amino]imidazo[1,2-a]pyrazin-3-yl}-N-cyclo-propylbenzamide] | 78.8 |
| Cc1cc(-c2cnc3c(NCCC(F)(F)F)nc(-c4cccnc4)cn23)ccc1C(=O)NC1CC1 [Example 1-70, N-cyclopropyl-2-methyl-4-{6-(pyridin-3-yl)-8-[(3,3,3-trifluoropropyl)amino]imidazo[1,2-a]pyrazin-3-yl}benzamide] | 4.2 |
| CC(C)CNc1nc(-c2ccccc2)cn2c(-c3ccc(C(=O)NC4CC4(C)C)cc3)cnc12 (stereo not drawn) [Example 2-1, N-(2,2-dimethylcyclopropyl)-4-{8-[(2-methylpropyl)amino]-6-phenylimidazo[1,2-a]pyrazin-3-yl}benzamide] | 162 |
| Cc1cc(-c2cnc3c(NCCC(F)(F)F)nc(-c4cn[nH]c4)cn23)ccc1C(=O)NC1CC1 [Example 1-78, N-cyclopropyl-2-methyl-4-{6-(1H-pyrazol-4-yl)-8-[(3,3,3-trifluoro-propyl)amino]imidazo [1,2-a]pyrazin-3-yl} benzamide] | 4.7 |
| CC(C)(O)CNc1nc(-c2ccoc2)cn2c(-c3ccc(C(=O)NC4CC4)c(F)c3)cnc12 [Example 1-58, N-cyclopropyl-2-fluoro-4-{6-(furan-3-yl)-8-[(2-hydroxy-2-methyl-propyl)amino]imidazo [1,2-a]pyrazin-3-yl} benzamide] | 23.1 |
| Cn1nccc1CNc1nc(-c2ccoc2)cn2c(-c3ccc(C(=O)NC4CC4)c(F)c3)cnc12 [Example 1-65, N-cyclopropyl-2-fluoro-4-[6-(furan-3-yl)-8-{[(1-methyl-1H-pyrazol-5-yl)methyl]amino}imidazo [1,2-a]pyrazin-3-yl] benzamide] | 4.3 |
| CC(C)CNc1nc(-c2ccccc2)cn2c(-c3ccc(C(=O)NC4(C)CC4)cc3)cnc12 [Example 2-3, N-(1-methylcyclopropyl)-4-{8-[(2-methylpropyl)amino]-6-phenylimidazo [1,2-a]pyrazin-3-yl}benzamide] | 208 |
| CC(C)CNc1nc(-c2csc3ccccc23)cn2c(-c3ccc(C(=O)NC4CC4)cc3)cnc12 [Example 1-14, 4-{6-(1-benzothiophen-3-yl)-8-[(2-methylpropyl)amino]imidazo[1,2-a]pyrazin-3-yl}-N-cyclo-propylbenzamide] | 6.9 |
| Cn1nccc1-c1cn2c(-c3ccc(C(=O)NC4CC4)c(Cl)c3)cnc2c(NCCCN)n1 [Example 1-98, 4-{8-[(3-Aminopropyl)amino]-6-(1-methyl-1H-pyrazol-5-yl)imidazo[1,2-a]pyrazin-3-yl}-2-chloro-N-cyclopropylbenzamide] | 1340 |
| Cn1nccc1CNc1nc(-c2ccncc2)cn2c(-c3ccc(C(=O)NC4CC4)c(Cl)c3)cnc12 [Example 1-46, 2-chloro-N-cyclopropyl-4-[8-{[(1-methyl-1H-pyrazol-5-yl)methyl]amino}-6-(pyridin-4-yl)imidazo[1,2-a]pyrazin-3-yl]benzamide] | 32.6 |
| CC(C)CNc1nc(C2=CCNCC2)cn2c(-c3ccc(C(=O)NC4CC4)cc3)cnc12 [Example 1-26, N-cyclopropyl-4-{8-[(2-methylpropyl)amino]-6-(1,2,3,6-tetrahydro-pyridin-4-yl)imidazo [1,2-a]pyrazin-3-yl} benzamide] | 2.9 |
| O=C(NC1CC1)c1ccc(-c2cnc3c(NCC4CCCO4)nc(-c4ccn[nH]4)cn23)cc1Cl (stereo not drawn) [Example 1-44, 2-chloro-N-cyclopropyl-4-{6-(1H-pyrazol-5-yl)-8-[(tetrahydrofuran-2-ylmethyl)amino]imidazo [1,2-a]pyrazin-3-yl} benzamide] | 127 |

The remaining lines, values ahead:

| IC50 [nM] | Structure (SMILES) |
| --- | --- |
| 6.5 | CC(C)CNc1nc(N2CCCCS2(=O)=O)cn2c(-c3ccc(C(=O)NC4CC4)cc3)cnc12 [Example 12-1, N-cyclopropyl-4-{6-(1,1-dioxido-1,2-thiazinan-2-yl)-8-[(2-methylpropyl)amino]imidazo[1,2-a]pyrazin-3-yl}benzamide] |
| 30.7 | CC(=O)NCCNc1nc(-c2ccncc2)cn2c(-c3ccc(C(=O)NC4CC4)cc3)cnc12 [Example 3-14, 4-[8-{[2-(acetylamino)ethyl]amino}-6-(pyridin-4-yl)imidazo[1,2-a]pyrazin-3-yl]-N-cyclo-propylbenzamide] |
| 17.6 | O=C(NC1CC1)c1ccc(-c2cnc3c(NCCCN4CCCC4=O)nc(-c4ccncc4)cn23)cc1 [Example 3-8, N-cyclopropyl-4-[8-{[3-(2-oxopyrrolidin-1-yl)propyl]amino}-6-(pyridin-4-yl)imidazo[1,2-a]pyrazin-3-yl]benzamide] |
| 2.3 | O=C(NC1CC1)c1ccc(-c2cnc3c(NCc4ccc(Cl)s4)nc(-c4ccncc4)cn23)cc1 [Example 3-31, 4-[8-{[(5-chlorothiophen-2-yl)methyl]amino}-6-(pyridin-4-yl)imidazo [1,2-a]pyrazin-3-yl]-N-cyclopropylbenzamide] |
| 1.7 | CCCCNc1nc(-c2ccncc2)cn2c(-c3ccc(C(=O)NC4CC4)cc3)cnc12 [Example 3-13, 4-[8-(butylamino)-6-(pyridin-4-yl)imidazo [1,2-a]pyrazin-3-yl]-N-cyclopropylbenzamide] |
| 19.6 | C[S+]([O-])CCNc1nc(-c2ccncc2)cn2c(-c3ccc(C(=O)NC4CC4)cc3)cnc12 (stereo not drawn) [Example 3-25, N-cyclopropyl-4-[8-{[2-(methylsulfinyl)ethyl]amino}-6-(pyridin-4-yl)imidazo[1,2-a]pyrazin-3-yl]benzamide] |
| 67.2 | CC(C)CNc1nc(C(=O)Nc2ccccc2)cn2c(-c3ccc(C(=O)NC4CC4)cc3)cnc12 [Example 8-1, 3-[4-(cyclopropylcarbamoyl)phenyl]-8-[(2-methylpropyl)amino]-N-phenylimidazo[1,2-a]pyrazine-6-carboxamide] |
| 7.4 | C#CCNc1nc(-c2ccccc2)cn2c(-c3ccc(C(=O)NC4CC4)cc3)cnc12 [Example 3-2, N-cyclopropyl-4-[6-phenyl-8-(prop-2-yn-1-ylamino)imidazo[1,2-a]pyrazin-3-yl]benzamide] |
| 5.1 | O=C(NC1CC1)c1ccc(-c2cnc3c(NCCCOCC4COCO4)nc(-c4ccccc4)cn23)cc1 (stereo not drawn) [Example 3-42, N-cyclopropyl-4-(8-{[3-(1,3-dioxolan-4-ylmethoxy)propyl]amino}-6-phenylimidazo[1,2-a]pyrazln-3-yl)benzamide] |
| 8.2 | O=C(NC1CC1)c1ccc(-c2cnc3c(NCCc4nccs4)nc(-c4ccncc4)cn23)cc1 [Example 3-34, N-cyclopropyl-4-[6-(pyridin-4-yl)-8-{[2-(1,3-thiazol-2-yl)ethyl]amino}imidazo[1,2-a]pyrazin-3-yl]benzamide] |
| 20.6 | CC(C)CNc1nc(C(=O)N2CCCCC2)cn2c(-c3ccc(C(=O)NC4CC4)cc3)cnc12 [Example 8-3, N-cyclopropyl-4-{8-[(2-methylpropyl)amino]-6-(piperidin-1-ylcarbonyl)imidazo[1,2-a]pyrazin-3-yl}benzamide] |
